One assay concerns the target human recombinant FAAH (Homo sapiens (Human), UniProt O00519). As to the kind of experiment: In vitro inhibition of human recombinant FAAH activity (Cayman FAAH inhibitor screening kit, AMC arachidonoyl amide hydrolysis). It counts as biochemical. From the text:
In brief, FAAH hydrolyzes AMC arachidonoyl amide resulting in the release of the fluorescent product, while the inhibitor will inhibit the FAAH activity and thus reduce the fluorescent signal.

A further assay has as its target human recombinant MAGL (Homo sapiens (Human), UniProt Q99685). As to the kind of experiment: In vitro inhibition of human recombinant MAGL activity (Cayman inhibitor screening kit, 4-nitrophenylacetate hydrolysis). It counts as biochemical. From the text:
The inhibitory effect of the synthetic chemicals on activity of human recombinant MAGL was studied using commercial inhibitor screening kit (Cayman Chemical). […] The absorbance of the yellow product can be analyzed using the plate reader. […]

Where [1] appears, read: human recombinant MAGL, read-out: Inhibition on MAGL activity (IC50).

Where two headings read alike, the source gives them in different places.

A word on the IC50: it is the concentration that inhibits the measured activity by half.

Chain of human recombinant FAAH (O00519 whole entry): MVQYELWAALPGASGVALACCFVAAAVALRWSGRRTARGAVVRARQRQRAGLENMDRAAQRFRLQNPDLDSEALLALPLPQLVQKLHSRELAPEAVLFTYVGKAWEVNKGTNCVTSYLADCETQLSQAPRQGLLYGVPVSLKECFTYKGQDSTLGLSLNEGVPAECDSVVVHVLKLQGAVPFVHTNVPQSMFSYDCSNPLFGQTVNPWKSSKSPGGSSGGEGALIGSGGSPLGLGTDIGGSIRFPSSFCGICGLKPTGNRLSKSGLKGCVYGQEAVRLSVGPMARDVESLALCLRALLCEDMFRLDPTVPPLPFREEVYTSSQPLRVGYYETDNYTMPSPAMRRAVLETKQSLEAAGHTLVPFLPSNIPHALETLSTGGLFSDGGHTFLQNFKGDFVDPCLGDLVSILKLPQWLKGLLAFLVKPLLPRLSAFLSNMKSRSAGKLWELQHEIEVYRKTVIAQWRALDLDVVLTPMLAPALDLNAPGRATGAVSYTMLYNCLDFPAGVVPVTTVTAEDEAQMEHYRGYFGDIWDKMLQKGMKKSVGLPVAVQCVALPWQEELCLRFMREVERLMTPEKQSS
Chain of human recombinant MAGL (Q99685 whole entry): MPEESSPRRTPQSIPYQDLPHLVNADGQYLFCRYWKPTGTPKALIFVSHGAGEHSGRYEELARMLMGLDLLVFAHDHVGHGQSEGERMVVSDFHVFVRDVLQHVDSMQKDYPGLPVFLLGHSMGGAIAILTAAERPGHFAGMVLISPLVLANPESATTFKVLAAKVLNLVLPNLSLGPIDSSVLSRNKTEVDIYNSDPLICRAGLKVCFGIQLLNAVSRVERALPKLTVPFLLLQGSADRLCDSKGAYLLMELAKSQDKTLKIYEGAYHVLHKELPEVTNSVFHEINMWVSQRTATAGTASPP

Take `Cn1ncc2cc(C(c3ccc4c(cnn4C)c3)N3CCN(C(=O)n4cnc(C#N)n4)CC3)ccc21` [Example 111, 1-(4-(bis(1-methyl-1H-indazol-5-yl)methyl)piperazine-1-carbonyl)-1H-1,2,4-triazole-3-carbonitrile]: the IC50 on human recombinant FAAH was ~10 µM; at human recombinant MAGL (setting [1]), 1 to 10 nM.

Take `O=C(N1CCN(C(c2ccc3c(c2)COCO3)c2ccc3c(c2)COCO3)CC1)n1nnc2ccc(F)cc21` [Example 39, (4-(bis(4H-benzo[d][1,3]dioxin-6-yl)methyl)piperazin-1-yl)(6-fluoro-1H-benzo[d][1,2,3]triazol-1-yl)methanone]: the IC50 was ~50 µM on human recombinant FAAH and 1 to 10 nM on human recombinant MAGL (setting [1]).

Regarding `N#Cc1ncn(C(=O)N2CCN(C(c3ccc(-n4cccn4)cc3)c3ccc(-n4cccn4)cc3)CC2)n1` [Example 116, 1-(4-(bis(4-(1H-pyrazol-1-yl)phenyl)methyl)piperazine-1-carbonyl)-1H-1,2,4-triazole-3-carbonitrile], the IC50 on human recombinant FAAH lay in the range of 10 to 50 µM; on human recombinant MAGL (setting [1]) it was 1 to 10 nM.

Turning to `O=C(Nc1cnccc1Cl)N1CCN(Cc2ccc3c(c2)OC(F)(F)O3)CC1` [JNJ-42165279, reference compound], the IC50 is 0.106 µM at human recombinant FAAH and > 50000 nM at human recombinant MAGL (setting [1]).

With `COc1ccc(C(c2ccc(F)cc2)N2CCN(C(=O)n3nnc4cc(C#N)ccc43)CC2)cc1` (centres unmarked) [Example 87, 1-(4-((4-fluorophenyl)(4-methoxyphenyl)methyl)piperazine-1-carbonyl)-1H-benzo[d][1,2,3]triazole-5-carbonitrile], the IC50 lay in the range of 0.1 to 10 µM at human recombinant FAAH and 1 to 10 nM at human recombinant MAGL (setting [1]).

In the case of `N#Cc1ncn(C(=O)N2CC3(CC(=C(c4ccc5c(c4)COCO5)c4ccc5c(c4)COCO5)C3)C2)n1` [Example 126, 1-(6-(bis(4H-benzo[d][1,3]dioxin-6-yl)methylene)-2-azaspiro[3.3]heptane-2-carbonyl)-1H-1,2,4-triazole-3-carbonitrile], the IC50 on human recombinant FAAH fell in the range of 1 to 10 µM; at human recombinant MAGL (setting [1]), 1 to 10 nM.

Consider `Cc1ncn(C(=O)N2CCN(C(c3ccc4c(c3)COCO4)c3ccc4c(c3)COCO4)CC2)n1` [Example 28, (4-(bis(4H-benzo[d][1,3]dioxin-6-yl)methyl)piperazin-1-yl)(3-methyl-1H-1,2,4-triazol-1-yl)methanone], for which the IC50 was > 20 µM at human recombinant FAAH and 1 to 20 nM on human recombinant MAGL (setting [1]).

In the case of `COc1cccc(C(c2cccc(OC)c2)N2CCN(C(=O)n3nnc4ccc(C#N)cc43)CC2)c1` [Example 95, 1-(4-(bis(3-methoxyphenyl)methyl)piperazine-1-carbonyl)-1H-benzo[d][1,2,3]triazole-6-carbonitrile], the IC50 is 10 to 50 µM on human recombinant FAAH and 1 to 10 nM at human recombinant MAGL (setting [1]).

Turning to `O=C(N1CCN(C(c2ccc3c(c2)COCO3)c2ccc3c(c2)COCO3)CC1)n1cnc(Cl)n1` [Example 2, (4-(bis(4H-benzo[d][1,3]dioxin-6-yl)methyl)piperazin-1-yl)(3-chloro-1H-1,2,4-triazol-1-yl)methanone], the IC50 at human recombinant FAAH was > 10 µM; on human recombinant MAGL (setting [1]), 1 to 10 nM.

Consider `O=C(Oc1ccc(F)cc1)N1CCN(C(c2ccc3c(c2)COCO3)c2ccc3c(c2)COCO3)CC1` [Example 5, 4-fluorophenyl 4-(bis(4H-benzo[d][1,3]dioxin-6-yl)methyl)piperazine-1-carboxylate], for which the IC50 was > 50 µM at human recombinant FAAH and > 100 nM at human recombinant MAGL (setting [1]).

Regarding `CCN(C(=O)N1CCN(C(c2ccc3c(c2)COCO3)c2ccc3c(c2)COCO3)CC1)C(C)C` [Example 11, 4-(bis(4H-benzo[d][1,3]dioxin-6-yl)methyl)-N-ethyl-N-isopropylpiperazine-1-carboxamide], the IC50 at human recombinant FAAH is > 50 µM; at human recombinant MAGL (setting [1]) it was > 100 nM.

Take `O=C(OC(C(F)(F)F)C(F)(F)F)C1CCN(C(c2ccc3c(c2)COCO3)c2ccc3c(c2)COCO3)CC1` [Example 53, 1,1,1,3,3,3-hexafluoropropan-2-yl 1-(bis(4H-benzo[d][1,3]dioxin-6-yl)methyl)piperidine-4-carboxylate]: the results for the IC50 on human recombinant FAAH and on human recombinant MAGL (setting [1]) were > 50 µM and > 100 nM, respectively.

With “1-(4-(di(pyridin-3-yl)methyl)piperazine-1-carbonyl)-1H-benzo[d][1,2,3]triazole-6-carbonitrile and 1-(4-(di(pyridin-3-yl)methyl)piperazine-1-carbonyl)-1H-benzo[d][1,2,3]triazole-5-carbonitrile [Example 105]”, the IC50 at human recombinant FAAH is > 10 µM; at human recombinant MAGL (setting [1]), 10 to 1000 nM.

Take `O=C(N1CCN(C(c2ccc3c(c2)COCO3)c2ccc3c(c2)COCO3)CC1)n1cncn1` [Example 10, (4-(bis(4H-benzo[d][1,3]dioxin-6-yl)methyl)piperazin-1-yl)(1H-1,2,4-triazol-1-yl)methanone]: the IC50 fell in the range of 1 to 10 µM at human recombinant FAAH and 10 to 100 nM on human recombinant MAGL (setting [1]).

In the case of `O=C(N1CCN(C(c2ccc3c(c2)COCO3)c2ccc3c(c2)COCO3)CC1)n1nnc2cc(C(F)(F)F)ccc21` [Example 45, (4-(bis(4H-benzo[d][1,3]dioxin-6-yl)methyl)piperazin-1-yl)(5-(trifluoromethyl)-1H-benzo[d][1,2,3]triazol-1-yl)methanone], the 50% inhibitory concentration (IC50) is > 1 µM at human recombinant FAAH and 10 to 100 nM on human recombinant MAGL (setting [1]).

For `O=C(N1CCN(C(c2ccc3c(c2)COCO3)c2ccc3c(c2)COCO3)CC1)n1ncc(-c2ccccc2)n1` [Example 26, (4-(bis(4H-benzo[d][1,3]dioxin-6-yl)methyl)piperazin-1-yl)(4-phenyl-2H-1,2,3-triazol-2-yl)methanone], the IC50 fell in the range of 1 to 10 µM at human recombinant FAAH and 10 to 100 nM at human recombinant MAGL (setting [1]).

Turning to `N#Cc1ccc2c(c1)nnn2C(=O)N1CCN(C(c2ccc3c(c2)OC(F)(F)O3)c2ccc3c(c2)OC(F)(F)O3)CC1` [Example 99, 1-(4-(bis(2,2-difluorobenzo[d][1,3]dioxol-5-yl)methyl)piperazine-1-carbonyl)-1H-benzo[d][1,2,3]triazole-5-carbonitrile], the IC50 on human recombinant FAAH is > 50 µM; at human recombinant MAGL (setting [1]), 1 to 10 nM.

Turning to `N#Cc1cnn(C(=O)N2CCN(C(c3ccc4c(c3)COCO4)c3ccc4c(c3)COCO4)CC2)c1` [Example 24, 1-(4-(bis(4H-benzo[d][1,3]dioxin-6-yl)methyl)piperazine-1-carbonyl)-1H-pyrazole-4-carbonitrile], the results for the IC50 on human recombinant FAAH and at human recombinant MAGL (setting [1]) were 1 to 10 µM and 1 to 10 nM, respectively.

For the compound `O=C(N1CCN(C(c2ccc3c(c2)COCO3)c2ccc3c(c2)COCO3)CC1)n1nnc2ccc(Br)cc21` [Example 37, (4-(bis(4H-benzo[d][1,3]dioxin-6-yl)methyl)piperazin-1-yl)(6-bromo-1H-benzo[d][1,2,3]triazol-1-yl)methanone], the IC50 on human recombinant FAAH is > 50 µM; on human recombinant MAGL (setting [1]) it was 1 to 10 nM.

Take `N#Cc1ccc2c(c1)nnn2C(=O)N1CCN(C(c2ccc3c(c2)COCO3)c2ccc3c(c2)COCO3)CC1` [Example 49, 1-(4-(bis(4H-benzo[d][1,3]dioxin-6-yl)methyl)piperazine-1-carbonyl)-1H-benzo[d][1,2,3]triazole-5-carbonitrile]: the half-maximal inhibitory concentration (IC50) on human recombinant FAAH is > 20 µM; at human recombinant MAGL (setting [1]), 10 to 100 nM.

For the compound `N#Cc1ncn(C(=O)N2CCN(C(c3ccc4occc4c3)c3ccc4occc4c3)CC2)n1` [Example 117, 1-(4-(di(benzofuran-5-yl)methyl)piperazine-1-carbonyl)-1H-1,2,4-triazole-3-carbonitrile], the results for the IC50 at human recombinant FAAH and at human recombinant MAGL (setting [1]) were 0.1 to 1 µM and 1 to 10 nM, respectively.

On to `O=C(Oc1ccc2c(c1)CCC2)N1CCN(C(c2ccc3c(c2)COCO3)c2ccc3c(c2)COCO3)CC1` [Example 12, 2,3-dihydro-1H-inden-5-yl 4-(bis(4H-benzo[d][1,3]dioxin-6-yl)methyl)piperazine-1-carboxylate], for which the IC50 on human recombinant FAAH is > 10 µM; at human recombinant MAGL (setting [1]) it was > 100 nM.

Regarding `N#Cc1ncn(C(=O)N2CC3CC(=C(c4ccc5c(c4)COCO5)c4ccc5c(c4)COCO5)CC3C2)n1` (stereo not drawn) [Example 125, meso-1-(5-(bis(4H-benzo[d][1,3]dioxin-6-yl)methylene)octahydrocyclopenta[c]pyrrole-2-carbonyl)-1H-1,2,4-triazole-3-carbonitrile], the IC50 on human recombinant FAAH was 1 to 10 µM; on human recombinant MAGL (setting [1]), 1 to 10 nM.

In the case of `COc1ccc(C(c2ccc(OC)cc2)N2CCN(C(=O)n3nnc4ccc(C#N)cc43)CC2)cc1` [Example 88, 1-(4-(bis(4-methoxyphenyl)methyl)piperazine-1-carbonyl)-1H-benzo[d][1,2,3]triazole-6-carbonitrile], the IC50 at human recombinant FAAH was ~50 µM; on human recombinant MAGL (setting [1]), 1 to 10 nM.

For the compound `N#Cc1ccc2nnn(C(=O)N3CCN(C(c4ccc5c(c4)OC(F)(F)O5)c4ccc5c(c4)OC(F)(F)O5)CC3)c2c1` [Example 98, 1-(4-(bis(2,2-difluorobenzo[d][1,3]dioxol-5-yl)methyl)piperazine-1-carbonyl)-1H-benzo[d][1,2,3]triazole-6-carbonitrile], the half-maximal inhibitory concentration (IC50) was > 50 µM on human recombinant FAAH and 1 to 10 nM at human recombinant MAGL (setting [1]).

Turning to `O=C(N1CCN(C(c2ccc3c(c2)COCO3)c2ccc3c(c2)COCO3)CC1)n1nc2ccccn2c1=O` [Example 50, 2-(4-(bis(4H-benzo[d][1,3]dioxin-6-yl)methyl)piperazine-1-carbonyl)-[1,2,4]triazolo[4,3-a]pyridin-3(2H)-one], the IC50 at human recombinant FAAH is > 50 µM; at human recombinant MAGL (setting [1]) it was > 100 nM.

With `O=C(Oc1c(F)c(F)c(F)c(F)c1F)N1CCN(C(c2ccc3c(c2)COCO3)c2ccc3c(c2)COCO3)CC1` [Example 29, pentafluorophenyl 4-(bis(4H-benzo[d][1,3]dioxin-6-yl)methyl)piperazine-1-carboxylate], the IC50 is > 50 µM on human recombinant FAAH and > 100 nM at human recombinant MAGL (setting [1]).

`O=C(On1nnc2ccccc21)N1CCN(C(c2ccc3c(c2)COCO3)c2ccc3c(c2)COCO3)CC1` [Example 27, 1H-benzo[d][1,2,3]triazol-1-yl 4-(bis(4H-benzo[d][1,3]dioxin-6-yl)methyl)piperazine-1-carboxylate]: the IC50 on human recombinant FAAH is > 10 µM; on human recombinant MAGL, 10 to 100 nM.

Source of the values: US12378231B2, “Small molecules as monoacylglycerol lipase (MAGL) inhibitors, compositions and use thereof” (APOGEE PHARMACEUTICALS, INC., priority 2023, dated 2025).
